Like-named read-outs stand apart in the source and are kept apart here.

We go through 5 compounds from patent publication US5880152A, “Butyrate prodrugs derived from lactic acid” (Vertex Pharmaceuticals, Inc., priority 1997, dated 1999).

Series [1] can be described thus: Triglycerides and ALT in the efficacy study. The following applies: three groups, prior to or during the two phases.
Another series has as its system Hemoglobin F. Kind of series: Efficacy study in anemic rhesus monkeys: % Hb F (HPLC). It counts as in vivo, rhesus monkey (anemic).
Series [2] relates to Fetal hemoglobin cells (F cells). Kind of series: Efficacy study in anemic rhesus monkeys: % F cells. The format is in vivo, rhesus monkey (anemic).
Experimental: Each group was studied in two phases, as shown below.
Phase I of the efficacy study.
I 2 Hydroxyurea 50 mg/kg/day
Phase II of the efficacy study.
The next series has as its system γ globin chain. Kind of series: Efficacy study in anemic rhesus monkeys: % γ globin chain (HPLC). The format is in vivo, rhesus monkey (anemic).
For series [3] the following is noted: in vivo; cited from earlier work.
The test system of a further series is fetal hemoglobin. As to conditions: sickle cell anemia patients; cited from earlier work.
The conditions of series [4]: rhesus monkey, in vivo.
In another series the test system is pancreatic cancel cells. The following applies: pancreatic cancer cells; cited from earlier work.
Series [5] has as its system colorectal carcinoma cell lines. As to conditions: cited from earlier work.
Series [6] relates to retinoblastoma cell lines. The following applies: cited from earlier work.
The test system of series [7] is urokinase plasminogen activator and its receptor mRNA. As to conditions: colon cancer cell lines; cited from earlier work.
For a further series, the system named is tumor, leukemia. The following applies: mice; cited from earlier work.
A further series concerns leukemia. As to conditions: cited from earlier work.
The test system of series [8] is Cultured Erythroleukemic Cells. The following applies: in vitro; cited from earlier work.

Experimental for Hemoglobin F: (§1) Fetal hemoglobin cells (F cells), Hemoglobin F level in total Hemoglobin (% Hb F) and % γ globin chain levels were monitored before and after each of the two phases. % F cells were measured according to the protocol described in Betke et al, Blut., 4, pp. 241-9 (1958). % Hb F and % γ globin chain synthesis were measured using High Performance Liquid Chromatography (HPLC) according to the protocol described in Huisman, J. Chromagtogr., 418, pp. 277 (1987)
Experimental for γ globin chain: as §1

Turning to `CCCC(=O)O[C@@H](C)C(=O)OCC` [Compound IIIc], in [1], the “levels of ALT” value is listed as “no detectable difference” and the “levels of the triglycerides” value is “no detectable difference”. The “change in HbF” value in the series with Hemoglobin F (Groups II and III) is “no measurable change”. Further, the “change in % F cells” value in [2] (Groups II and III) is given as “small but significant increase”. The “change in γ-globin chain levels” value in the series on γ globin chain (Groups II and III) is recorded as “no measurable change”.
As to `NC(=O)NO` [Hydroxyurea, hydroxyurea], the “change in % Hb F” value with Hemoglobin F (Group I) is given as “measurable increase”. Further, the toxicity result in [3] was “potentially limited by myelotoxicity and the risk of carcinogenesis”. Besides, in the series with fetal hemoglobin, the fetal hemoglobin production result is listed as “stimulates fetal hemoglobin production” and the sickling crisis entry is given as “reduces sickling crisis”. The “% F cell count” value in [2] (animal 1, group I, end of Phase I (hydroxyurea 50 mg/kg/day, 5 weeks), before Phase I 8-10) turned out to be 25%. Also, the “change in % γ-globin chain levels” value with γ globin chain (Group I) is recorded as “measurable increase”. Also, in series [4], the “levels of ALT” value is reported as “no detectable difference” and the “levels of the triglycerides” value is reported as “no detectable difference”.
Turning to `CCCC(=O)[O-].[Na+]` [Sodium butyrate], the antigen expression result with pancreatic cancel cells was “modify antigen expression”. For the same compound, the apoptosis result in series [5] and in series [6] was “induce apoptosis” each time. In addition, in [7], the “urokinase plasminogen activator and its receptor mRNA expression” value is “inhibit”.
For the compound `CCCC(=O)O` [arginine butyrate], in the series on tumor, leukemia, the “anti-tumor and anti-leukemia effects” value is “exert anti-tumor and anti-leukemia effects in mice”.
Regarding `CCCC(=O)O` [butyric acid], the “effect in leukemia patients, by inducing cell differentiation” value in the series on leukemia is given as “promising effects”. For the same compound, in series [8], the cell differentiation result was “induces cell differentiation”.
